# Results from a melting point compilation (Tetko et al.; mined from patent text by program, amines drawn as free bases though some values may be those of a salt).
row,SMILES,melting point [°C]
1,CC(=O)Nc1ccc(Cl)cc1NC(C)=O,216
2,CC(C)(CO)NS(=O)(=O)c1ccc(Cl)s1,112
3,O=C(O)C1CSC(c2cc([N+](=O)[O-])ccc2OCCO[N+](=O)[O-])N1 (stereo unspecified),99 to 101
4,CCCCCCCCCCN1CCCN(O)C1=O,45 to 46
5,CC(=O)c1ccc(Oc2ccc(I)cc2)cc1,99 to 101
6,CC1(CF)C=C(C#N)c2cc([N+](=O)[O-])ccc2O1 (stereo unspecified),169 to 171
7,C=CCOC(=O)CC[C@H](NC(=O)Nc1ccc(COC(=O)Oc2ccc([N+](=O)[O-])cc2)cc1)C(=O)OCC=C,106 to 107
8,N#Cc1cc(=O)n2nc(S(=O)(=O)Cc3ccccc3)sc2n1,214 to 217
9,CCNC(=S)Nc1nccs1,135 to 136
10,N#Cc1cccc(CN2CCN(c3ccc(NC(=O)c4ccccc4OCc4ccc(C(F)(F)F)cc4)cc3)CC2)c1,190 to 191
11,c1ccc(-c2ccc3c(ccc4c5ccccc5[nH]c34)c2)cc1,254
12,Fc1ccc2c(c1)nc(/C=C/c1ccccc1)n2-c1ccccn1,134 to 135
13,CSCC[C@H](NC(=O)c1ccc(/C=C(/Cn2ccnc2)c2ccc(F)cc2)cc1)C(=O)O,106
14,Cc1cc(-c2ccccc2C#N)ccc1[N+](=O)[O-],128 to 136
15,COc1ccc(C(=O)Nc2ccccc2)cc1NCc1ccc(C(=O)O)cc1,> 240
16,N#Cc1ccc(Oc2ccccc2Oc2ccc(C#N)cc2)cc1,112
17,CCN(CC)Cc1cc(NC(=O)Nc2ccc(Oc3cc(NC)ncn3)cc2)cc(C(F)(F)F)c1,68 to 70
18,ON=C(c1ccc(Cl)cc1)c1ccc(Cl)cc1Cl,98 to 100
19,Cc1c(Cl)cccc1N1C(=O)CN(c2ccccc2)C1=S,154 to 156
20,CC(C)(C)OC(=O)NNC(=N)C(Cl)(Cl)Cl,150
21,N#Cc1ccc2nc(C(=O)NCc3cccc(NC(=O)CCc4nc[nH]n4)c3)[nH]c(=O)c2c1,298 to 301

row,SMILES,melting point [°C]
1,Cc1c(-c2ccccc2)c(N2CC(N(C)C)C2)c2oc(C(C)(C)C)nc2c1C#N,211 to 212
2,O=C(Nc1nc(NC(=O)c2cccnc2)nc(NC(=O)c2cccnc2)n1)c1cccnc1,276 to 278
3,Cc1cc(C)nc(NC(=O)Cc2cc(Br)sc2Br)c1,109
4,CC(C(=O)O)c1ccc(N=c2sccn2C)c(Cl)c1 (stereo unspecified),132 to 133
5,COc1ccc(-c2[nH]nc3c2C(=O)c2c(NC(=O)Cc4ccccc4)cccc2-3)cc1,280
6,CC(C)Oc1c(F)cc2c(O)c(C(=O)NCc3ccc(Cl)cc3)cnc2c1F,207 to 209
7,COc1cc(Nc2ccnc(Nc3cc(OC)c(OC)c(OC)c3)n2)cc(OC)c1OC,180
8,Cc1c(Cl)cccc1S(=O)(=O)Nc1ccc2nc(C)n(C)c2c1,265 to 266
9,CC(C)(C)c1nnc(S)o1,79 to 80
10,CC(C)Cc1nc(-c2cccnc2)c[nH]c1=O,195 to 196
11,CCOC(=O)C(=CNCc1cnsn1)C(=O)c1cc(F)c(F)c(F)c1F,154 to 156
12,COC(=O)NC(=S)Nc1ccon1,165 to 167
13,COc1ccc(CCNC(=O)Nc2ccccc2CCc2cc(C(C)(C)C)c(O)c(C(C)(C)C)c2)cc1OC,158 to 160
14,C=CC(=O)Oc1ccc(CNS(C)(=O)=O)cc1,112 to 115
15,CC=C(c1ccc(N(C)C)cc1)c1ccc(N(C)C)cc1,99 to 101
16,COc1ccc(C(=O)Nc2ccc3ccc(Oc4c(C)cccc4C)nc3n2)cc1,174
17,CCC(c1ccc(C(O)(C(F)(F)F)C(F)(F)F)cc1)S(=O)(=O)c1ccccc1 (stereo unspecified),148
18,CCOC(=O)COc1ccc(Cn2c(-c3ccc(C(F)(F)F)cc3)c(C)c3cc(OCc4ccccc4)ccc32)cc1,221
19,CN(C(=O)c1ccc(Cl)c(Cl)c1)c1ccc(Cl)cc1CCC(=O)O,159 to 160
20,O=C(CCc1ccncc1)c1c(O)c2cccnc2n(-c2cccc([N+](=O)[O-])c2)c1=O,174 to 177
21,CCOC(=O)/C=C/c1ccc(OCc2nc(C)c(C)nc2C)c(OC)c1,112

row,SMILES,melting point [°C]
1,CCN(CC)CCCNc1nnc(-c2ccc(F)c(F)c2Nc2ccc(I)cc2F)o1,116 to 118
2,Cn1cc(-c2c(-c3ccc(F)cc3)nn3ccncc23)ccc1=O,222 to 223
3,NC(=O)CN1C(=O)C(NC(=O)c2cc3ccccc3[nH]2)C(Cc2ccccc2)Sc2ccccc21 (stereo unspecified),275
4,O=C1c2c(Cl)cccc2-n2cnc(-c3nc(C4CC4)no3)c2[C@@H]2CCCN12,213 to 214
5,CC(C)(C)c1ccc(NC(=O)Nc2ccc(Oc3cc(Cl)ncn3)cc2)cc1,111 to 112
6,O=C(OCc1ccccc1O)c1cc(O)c2c(c1)C(=O)c1cccc(O)c1C2=O,125 to 130
7,Cc1cc(C)cc(COC(=O)C(Cc2c[nH]c3ccccc23)NC(=O)OC(C)(C)C)c1 (stereo unspecified),152 to 153
8,O=C(O)CCC(=O)c1ccc(-c2ccc(F)cc2)cc1,174 to 176
9,CC(=O)OC1OCC[C@@H]1NC(=O)[C@@H](N)CC(C)C (stereo partly specified),75 to 80
10,CC(C)(C)C(=O)Nc1nc(O)c2c(n1)NCC(CCC1CCC(C(=O)O)CC1)C2 (stereo unspecified),218 to 234
11,Cc1cc(NC(=O)CC(C)(C)C)c2c(c1)C(c1ccc(C(C)C)cc1)C(C)(C)O2 (stereo unspecified),64 to 68
12,O=S(=O)(NCCO)c1c[nH]c(-c2ccc(Cl)cc2)n1,210 to 212
13,CN(C)S(=O)(=O)c1cc2c(c(Cl)c1Cl)OC(CO)C2 (stereo unspecified),133 to 134
14,Nc1ncc(-c2ccc3ncc(-c4ccc(CN5CCC(C(=O)N6CCCCC6)CC5)cc4)n3n2)cc1C(F)(F)F,263 to 266
15,Clc1ccc(-c2cc(Cl)c3cc(Cl)ccc3n2)cc1,204 to 208
16,Nc1nc(-c2ccccc2)c(-c2ccnc(Nc3cccc(I)c3)n2)s1,243 to 244
17,CC(C)C(OC(=O)NC(C)(Cc1ccccc1)C(=O)NC(Cc1ccc(O)cc1)C(=O)NCCCCCCCO)c1ccccc1 (stereo unspecified),70 to 76
18,COc1ccccc1SCC1NCCS1 (stereo unspecified),111 to 112
19,CC(C)(C)[N+]([O-])=Cc1cc(Cl)cc(Cl)c1O,103

# Other lines, results leading:
row,melting point [°C],SMILES
1,109,CCOC(=O)c1nc(C)n(Cc2ccc([N+](=O)[O-])cc2)c1C(=O)OCC
2,158 to 161,Oc1ccc2c(c1)OC(c1ccc(OCCN3CCCCC3)cc1)c1c-2ccc2cc(O)ccc12 (stereo unspecified)
3,218 to 220,CC(C)(C)OC(=O)N1CCN(Cc2ccc3c(c2)-c2[nH]nc(-c4ccsc4)c2C3)CC1
4,249 to 251,O=C1CCCc2ccc(Nc3ncc(Cl)c(Nc4ccccc4S(=O)(=O)N4CCCC4)n3)cc2N1
5,190,O=C1c2ccccc2C(=O)N1CCN1CCC(=C2c3ccccc3C=Cc3ccccc32)CC1
6,158 to 160,CN(C)C(=O)C(CCO)C1(C)OCCc2c1[nH]c1ccccc21 (stereo unspecified)
7,118 to 119,CC(=O)OC1C(=O)NC1c1ccco1 (stereo unspecified)
8,300,Cn1cc(C(=O)O)c(=O)c2c3cc(N4CCC(O)(c5cccc(C(F)(F)F)c5)CC4)c(F)cc3ncc21
9,200 to 201,O=C(NCc1ccc(Cl)cc1)c1cc2c3c(cc(CN4CCOCC4)cn3c1=O)CCC2
10,180 to 182,N#Cc1c(N2CCCCC2)cc(-c2ccc(F)cc2)c2c1-c1ccccc1C2=O
11,208 to 209,CCc1cn(C2CC(O)C(CNC(=O)C(C)S(=O)c3ccc(Cl)cc3Cl)O2)c(=O)[nH]c1=O (mixture of isomers)
12,170 to 173,CC(C)CC(=O)Nc1cccc(-c2ccnc3c(-c4cccc(CN5CCOCC5)c4)cnn23)c1
13,138,CCOC(=O)C1(C(=O)OCC)CCC2(c3cc(OC)c(OC)cc3CCN2C(=O)CC)C(C2c3cc(OC)c(OC)cc3CCN2CC)C1 (stereo unspecified)
14,123 to 125,COc1ccc([C@H]2N[C@H](c3ccc4c(c3)OCO4)c3ccccc32)cc1 (racemic)
15,> 260,CCOC(=O)c1cnc2ccc(SC)cc2c1O
16,165,CC1(C)Oc2ccc(OC(F)F)cc2[C@@H](N2CCCCC2=O)[C@@H]1O (relative stereo)
17,205 to 207,CC(C)(C)c1cc(N2Cc3ccccc3C2=O)cc(C(C)(C)C)c1O
18,106 to 108,CN(C)c1ccncc1CCCOc1ccccc1OCCCC(=O)O

row,melting point [°C],SMILES
1,185 to 188,COC(=O)Cn1oc2cc(OC)ccc2c1=O
2,76,COc1ccc(OCc2ccccc2)c2[nH]c(C)c(C)c12
3,154 to 156,COc1cn(-c2ccccc2F)nc(C(C)=O)c1=O
4,95 to 97,c1ccc(-c2nnc(-c3ccc(CN4CCCCCC4)s3)o2)cc1
5,121 to 123,Cc1cc(OCCCN2CCC[C@H]2C)ccc1C1=NNC(=O)CC1
6,130 to 132,CCC(OC(=O)C1CC1)c1ccc(Cl)c2nc3n(c12)CCCN3c1ccc(OC)cc1Cl (stereo unspecified)
7,190 to 191,CSc1nc(NC2CCCC2)c2ccnc-2[nH]1
8,85 to 86,C[C@@H]1CO[C@]2(CC[C@@H](OCc3ccccc3)C2)N1C(=O)c1ccccc1
9,149 to 150,COc1cc(CCCC2SC(=O)NC2=O)ccc1OCc1nc(-c2ccccc2)sc1C (stereo unspecified)
10,92 to 94,Cc1ccc(F)c(C2CC(=O)c3c(C)ccnc3C2)c1 (stereo unspecified)
11,183,Cc1nc2c3c(c(C(=O)N(C)C)cc2[nH]1)CCC1(Cc2ccccc2C1)N3
12,181,O=C1C=C(O)CC(c2ccc3c(c2)OCO3)C1 (stereo unspecified)
13,89 to 91,CCOCCOC(=O)C1=C(C)NC(C#N)=C(C(=O)OCC)C1c1cccc([N+](=O)[O-])c1 (stereo unspecified)
14,158 to 160,CC[Si](C#Cc1ccc2nc(-c3ncc[nH]3)nc(NCCOC)c2c1)(CC)CC
15,104 to 107,CCC1(C)CC(=O)C2(C)CCC3c4ccc(OC)cc4CCC3C12 (stereo unspecified)
16,195,CC(C)Cn1c(=O)n(C)c(=O)c2c(SC(C)C)c(Cn3cnc4ccccc43)sc21
17,> 300,O=c1[nH]c2cc(Cl)c([N+](=O)[O-])cc2n(C2CCCCC2)c1=O
